# US12391737B2, “Soluble NPY2 receptor agonists” (Boehringer Ingelheim International GmbH, priority 2020, dated 2025)
# How the values were obtained:
# Solubility determination = conditions: for Sol6: pH 6; for Sol7: pH 7
# In short: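 Solubility is derived from the ratio of reversed-phase peak areas, filtered sample over a control dissolved at 1 mg/ml in 50% acetonitrile. Peptides are agitated for 2 hours at room temperature in 0.1 M sodium diphosphate at pH 6.4 or 7.0, aiming at 10 mg/ml.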
# [1] = molecular target: T1, human NPY2 receptor (hY2R) (Homo sapiens, UniProt P49146); assay: HTRF cAMP Gi assay, hY2R
# T1 sequence (P49146 1-381): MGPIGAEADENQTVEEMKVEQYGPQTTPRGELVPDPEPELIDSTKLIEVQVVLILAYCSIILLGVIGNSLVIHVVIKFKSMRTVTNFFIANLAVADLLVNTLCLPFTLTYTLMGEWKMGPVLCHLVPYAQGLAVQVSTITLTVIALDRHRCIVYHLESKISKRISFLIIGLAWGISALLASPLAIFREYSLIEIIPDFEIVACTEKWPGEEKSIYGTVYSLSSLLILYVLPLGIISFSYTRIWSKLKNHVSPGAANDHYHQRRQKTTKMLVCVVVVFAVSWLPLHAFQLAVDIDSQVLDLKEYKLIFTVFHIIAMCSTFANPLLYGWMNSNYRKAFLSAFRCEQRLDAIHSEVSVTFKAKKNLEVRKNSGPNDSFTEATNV
# Excerpt: The Homogenous Time Resolved fluorescence (HTRF) technology optimized for Gi coupled receptors has thoroughly been described in Cisbio cAMP Gi kit manual. Briefly, the production of intracellular cAMP will generate a competition between unlabeled cAMP and exogenously added d2-cAMP for anti-cAMP antibodies conjugated to cryptate. CHO-K1 cells stably expressing the human NPY1, NPY2, NPY4 and NPY5 receptors were used with the cells brought to life from a frozen stock immediately before assay performance. 2000 cells per well were applied for all four NPY receptor subtype assays. A 384-well format was used applying a total volume of 20 μl using 5 μl cells, 2.5 μl peptide agonist, 2.5 μl forskolin and 5 μl of each of the fluorophores. […] Concentration-response evaluation of compounds was performed with 11 concentrations of agonist peptides (covering 3 decades). EC50 values were calculated by nonlinear regression using sigmoid concentration-response with variable slope.
# [2] = molecular target: T2, Human Neuropeptide Y2 Receptor (Homo sapiens, UniProt P49146); assay: Radioligand binding competition assay (RLB); conditions: Table 3, 125I-PYY(1-36) competition; read-out: Ki
# T2 construct: purchased CHEMICON HTS066M
# T2 sequence (P49146 1-381): T1 sequence (P49146 1-381)
# In short: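 Filtration competition binding on membranes from cells expressing the receptor, 0.5 μg protein/well, in 50 mM HEPES, 5 mM MgCl2, 1 mM CaCl2, pH 7.4, with 0.2% ovalbumin. Incubation ran 2 h at room temperature, followed by GF/C filtration and scintillation counting. IC50 came from nonlinear sigmoidal fits.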
# [3] = molecular target: T3, human NPY5 receptor (hY5R) (Homo sapiens, UniProt Q15761); assay: HTRF cAMP Gi assay, hY5R
# T3 sequence (Q15761 1-445): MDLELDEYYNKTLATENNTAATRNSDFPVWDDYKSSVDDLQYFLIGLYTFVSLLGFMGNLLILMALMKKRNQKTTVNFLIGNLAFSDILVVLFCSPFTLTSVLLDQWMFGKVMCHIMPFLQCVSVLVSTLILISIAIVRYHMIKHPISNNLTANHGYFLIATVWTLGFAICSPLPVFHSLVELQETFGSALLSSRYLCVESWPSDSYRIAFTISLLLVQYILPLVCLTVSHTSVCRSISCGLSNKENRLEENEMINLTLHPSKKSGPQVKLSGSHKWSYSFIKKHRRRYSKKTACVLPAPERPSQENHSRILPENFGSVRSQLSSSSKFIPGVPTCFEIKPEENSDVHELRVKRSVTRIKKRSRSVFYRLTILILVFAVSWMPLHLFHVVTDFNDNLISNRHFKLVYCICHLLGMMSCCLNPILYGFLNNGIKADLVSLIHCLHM
# Description: (§1) Briefly, the production of intracellular cAMP will generate a competition between unlabeled cAMP and exogenously added d2-cAMP for anti-cAMP antibodies conjugated to cryptate. CHO-K1 cells stably expressing the human NPY1, NPY2, NPY4 and NPY5 receptors were used with the cells brought to life from a frozen stock immediately before assay performance. 2000 cells per well were applied for all four NPY receptor subtype assays. A 384-well format was used applying a total volume of 20 μl using 5 μl cells, 2.5 μl peptide agonist, 2.5 μl forskolin and 5 μl of each of the fluorophores. […] Concentration-response evaluation of compounds was performed with 11 concentrations of agonist peptides (covering 3 decades). EC50 values were calculated by nonlinear regression using sigmoid concentration-response with variable slope.
# [4] = molecular target: T4, human NPY1 receptor (hY1R) (Homo sapiens, UniProt P25929); assay: HTRF cAMP Gi assay, hY1R; format: cell-based; conditions: CHO-K1 cells
# T4 construct: expressed in transfected cells; host or cells: CHO-K1
# T4 sequence (P25929 1-384): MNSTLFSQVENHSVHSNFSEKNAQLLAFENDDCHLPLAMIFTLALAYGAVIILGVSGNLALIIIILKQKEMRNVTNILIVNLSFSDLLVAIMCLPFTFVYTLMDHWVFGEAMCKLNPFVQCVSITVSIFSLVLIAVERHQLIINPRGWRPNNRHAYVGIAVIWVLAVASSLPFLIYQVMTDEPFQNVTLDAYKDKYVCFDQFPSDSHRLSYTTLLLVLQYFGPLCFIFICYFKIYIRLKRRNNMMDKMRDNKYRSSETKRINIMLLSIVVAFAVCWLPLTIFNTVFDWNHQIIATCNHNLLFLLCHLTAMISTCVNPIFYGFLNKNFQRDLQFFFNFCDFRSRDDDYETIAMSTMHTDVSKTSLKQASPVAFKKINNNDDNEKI
# Description: as §1
# [5] = molecular target: T5, human NPY4 receptor (hY4R) (Homo sapiens, UniProt P50391); assay: HTRF cAMP Gi assay, hY4R; format: cell-based; conditions: CHO-K1 cells
# T5 construct: expressed in transfected cells; host or cells: CHO-K1
# T5 sequence (P50391 whole entry): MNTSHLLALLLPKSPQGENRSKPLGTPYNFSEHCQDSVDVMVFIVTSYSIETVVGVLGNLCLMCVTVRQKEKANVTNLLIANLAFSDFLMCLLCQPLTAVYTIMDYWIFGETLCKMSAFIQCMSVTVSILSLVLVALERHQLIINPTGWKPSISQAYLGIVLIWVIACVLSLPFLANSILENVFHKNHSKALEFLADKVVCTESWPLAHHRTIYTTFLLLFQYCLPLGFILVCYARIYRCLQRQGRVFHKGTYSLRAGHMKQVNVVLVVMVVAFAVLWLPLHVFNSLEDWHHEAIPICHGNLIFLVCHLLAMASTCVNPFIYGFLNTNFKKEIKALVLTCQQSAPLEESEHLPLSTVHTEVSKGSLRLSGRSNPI
Sol6 (Solubility determination),Sol7 (Solubility determination),EC50 [1],Ki [2],EC50 [3],EC50 [4],EC50 [5],Structure (SMILES)
9.0 mg/mL,9.2 mg/mL,0.197 nM,2.79 nM,> 5000 nM,–,–,"CC(C)CC(=O)N[C@@H](C)C(=O)N1CCC[C@H]1C(=O)N[C@@H](CCC(=O)O)C(=O)N[C@@H](CCCCNC(=O)CCCCCNC(=O)CC[C@H](NC(=O)CCCCCCCCCCCCCCCCC(=O)O)C(=O)O)C(=O)N1CCC[C@H]1C(=O)N[C@@H](CCC(=O)O)C(=O)N[C@@H](C)C(=O)N[C@@H](CC(=O)O)C(=O)N[C@@H](C)C(=O)N[C@@H](CCC(=O)O)C(=O)N1CCC[C@H]1C(=O)N[C@@H](CCC(=O)O)C(=O)N[C@@H](CCC(=O)O)C(=O)N[C@@H](CC(C)C)C(=O)N[C@@H](CCC(N)=O)C(=O)N[C@@H](CCCNC(=N)N)C(=O)N[C@@H](Cc1ccc(O)cc1)C(=O)N[C@@H](Cc1ccc(O)cc1)C(=O)N[C@H](C(=O)N[C@@H](CO)C(=O)N[C@@H](CC(C)C)C(=O)N[C@@H](CCCNC(=N)N)C(=O)N[C@@H](Cc1c[nH]cn1)C(=O)N[C@@H](Cc1ccc(O)cc1)C(=O)N[C@@H](Cc1ccc(O)cc1)C(=O)N[C@@H](CC(N)=O)C(=O)N[C@@H](Cc1c[nH]c2ccccc12)C(=O)N[C@@H](CC(C)C)C(=O)N[C@H](C(=O)N[C@@H](CCCNC(=N)N)C(=O)N[C@@H](CCC(N)=O)C(=O)N[C@@H](CCCNC(=N)N)C(=O)N[C@@H](Cc1ccc(O)cc1)C(N)=O)[C@@H](C)O)C(C)C [Compound 72, N{alpha-4}-(3-methylbutanoyl)-N{epsilon-7}-(6-[(4S)-4-carboxy-4-(17-carboxyheptadecanamido)butanamido]hexanoyl)-[4A,7K,9E,10A,13E,18Q,22V,28Y,30W,31L]-hPYY(4-36)]"
9.8 mg/mL,9.6 mg/mL,0.13 nM,8.93 nM,> 5000 nM,–,–,"CC(C)CC(=O)N[C@@H](C)C(=O)N1CCC[C@H]1C(=O)N[C@@H](CCC(=O)O)C(=O)N[C@@H](CCCCNC(=O)CCCCCNC(=O)CC[C@H](NC(=O)CCCCCCCCCCCCCCCCC(=O)O)C(=O)O)C(=O)N1CCC[C@H]1C(=O)N[C@@H](CCC(=O)O)C(=O)N[C@@H](CCC(=O)O)C(=O)N[C@@H](CCC(=O)O)C(=O)N[C@@H](C)C(=O)N[C@H](C(=O)N1CCC[C@H]1C(=O)N[C@@H](CCC(=O)O)C(=O)N[C@@H](CCC(=O)O)C(=O)N[C@@H](CC(C)C)C(=O)N[C@@H](CCC(N)=O)C(=O)N[C@@H](CCCNC(=N)N)C(=O)N[C@@H](Cc1ccc(O)cc1)C(=O)N[C@@H](Cc1ccc(O)cc1)C(=O)N[C@H](C(=O)N[C@@H](CO)C(=O)N[C@@H](CC(C)C)C(=O)N[C@@H](CCCNC(=N)N)C(=O)N[C@@H](Cc1c[nH]cn1)C(=O)N[C@@H](Cc1ccc(O)cc1)C(=O)N[C@@H](Cc1ccc(O)cc1)C(=O)N[C@@H](CC(N)=O)C(=O)N[C@@H](Cc1c[nH]c2ccccc12)C(=O)N[C@@H](CC(C)C)C(=O)N[C@H](C(=O)N[C@@H](CCCNC(=N)N)C(=O)N[C@@H](CCC(N)=O)C(=O)N[C@@H](CCCNC(=N)N)C(=O)N[C@@H](Cc1ccc(O)cc1)C(N)=O)[C@@H](C)O)C(C)C)[C@@H](C)O [Compound 146, N{alpha-4}-(3-methylbutanoyl)-N{epsilon-7}-(6-[(4S)-4-carboxy-4-(17-carboxyheptadecanamido)butanamido]hexanoyl)-[4A,7K,9E,11E,13T,18Q,22V,28Y,30W,31L]-hPYY(4-36)]"
9.3 mg/mL,8.4 mg/mL,0.086 nM,1.28 nM,> 5000 nM,–,–,"CC(C)CC(=O)N[C@@H](C)C(=O)N1CCC[C@H]1C(=O)N[C@@H](CCC(=O)O)C(=O)N[C@@H](CCCCNC(=O)CCCCCNC(=O)CC[C@H](NC(=O)CCCCCCCCCCCCCCCCC(=O)O)C(=O)O)C(=O)N1CCC[C@H]1C(=O)N1CCC[C@H]1C(=O)N[C@@H](CCC(=O)O)C(=O)N[C@@H](CC(=O)O)C(=O)N[C@@H](C)C(=O)N[C@@H](CO)C(=O)N1CCC[C@H]1C(=O)N[C@@H](CCC(=O)O)C(=O)N[C@@H](CCC(=O)O)C(=O)N[C@@H](CC(C)C)C(=O)N[C@@H](CCC(N)=O)C(=O)N[C@@H](CCCNC(=N)N)C(=O)N[C@@H](Cc1ccc(O)cc1)C(=O)N[C@@H](Cc1ccc(O)cc1)C(=O)N[C@H](C(=O)N[C@@H](CO)C(=O)N[C@@H](CC(C)C)C(=O)N[C@@H](CCCNC(=N)N)C(=O)N[C@@H](Cc1c[nH]cn1)C(=O)N[C@@H](Cc1ccc(O)cc1)C(=O)N[C@@H](Cc1ccc(O)cc1)C(=O)N[C@@H](CC(N)=O)C(=O)N[C@@H](Cc1c[nH]c2ccccc12)C(=O)N[C@@H](CC(C)C)C(=O)N[C@H](C(=O)N[C@@H](CCCNC(=N)N)C(=O)N[C@@H](CCC(N)=O)C(=O)N[C@@H](CCCNC(=N)N)C(=O)N[C@@H](Cc1ccc(O)cc1)C(N)=O)[C@@H](C)O)C(C)C [Compound 14, N{alpha-4}-(3-methylbutanoyl)-N{epsilon-7}-(6-[(4S)-4-carboxy-4-(17-carboxyheptadecanamido)butanamido]hexanoyl)-[4A,7K,9P,18Q,22V,28Y,30W,31L]-hPYY(4-36)]"
9.6 mg/mL,10.0 mg/mL,–,1.07 nM,> 5000 nM,> 5000 nM,> 5000 nM,"CC(C)CC(=O)N[C@@H](C)C(=O)N1CCC[C@H]1C(=O)N[C@@H](CCC(=O)O)C(=O)N[C@@H](CCCCNC(=O)CCCCCNC(=O)CC[C@H](NC(=O)CCCCCCCCCCCCCCCCC(=O)O)C(=O)O)C(=O)N1CCC[C@H]1C(=O)N[C@@H](CCC(=O)O)C(=O)N[C@@H](C)C(=O)N[C@@H](CC(=O)O)C(=O)N[C@@H](C)C(=O)N[C@H](C(=O)N1CCC[C@H]1C(=O)N[C@@H](CCC(=O)O)C(=O)N[C@@H](CCC(=O)O)C(=O)N[C@@H](CC(C)C)C(=O)N[C@@H](CCC(N)=O)C(=O)N[C@@H](CCCNC(=N)N)C(=O)N[C@@H](Cc1ccc(O)cc1)C(=O)N[C@@H](Cc1ccc(O)cc1)C(=O)N[C@H](C(=O)N[C@@H](C)C(=O)N[C@@H](CC(C)C)C(=O)N[C@@H](CCCNC(=N)N)C(=O)N[C@@H](Cc1c[nH]cn1)C(=O)N[C@@H](Cc1ccc(O)cc1)C(=O)N[C@@H](Cc1ccc(O)cc1)C(=O)N[C@@H](CC(N)=O)C(=O)N[C@@H](Cc1c[nH]c2ccccc12)C(=O)N[C@@H](CC(C)C)C(=O)N[C@H](C(=O)N[C@@H](CCCNC(=N)N)C(=O)N[C@@H](CCC(N)=O)C(=O)N[C@@H](CCCNC(=N)N)C(=O)N[C@@H](Cc1ccc(O)cc1)C(N)=O)[C@@H](C)O)C(C)C)[C@@H](C)O [Compound 136, N{alpha-4}-(3-methylbutanoyl)-N{epsilon-7}-(6-[(4S)-4-carboxy-4-(17-carboxyheptadecanamido)butanamido]hexanoyl)-[4A,7K,9E,10A,13T,18Q,22V,23A,28Y,30W,31L]-hPYY(4-36)]"
